In patent US20160201063A1, “EPIGENETIC REGULATORS OF FRATAXIN” (RANA THERAPEUTICS, INC., priority 2013, published 2016):

Tests used:
FXN protein [1] = experiment: FXN protein western blot in GM03816 and GM04078 cells treated with histone lysine methyltransferase inhibitor; format: cell-based, human; conditions: 3 days of HLMi treatment, 5 μM, 2.5 μM, 1.25 μM, vs DMSO
Protocol: Results from control cells treated with DMSO and without inhibitor treatment are also shown.
Human FRDA diseased cell lines GM03816 and GM04078 were plated at 150000 cells/well. The cells were treated at various concentrations and times with a histone lysine methyltransferase inhibitor dissolved in DMSO. The antibody used for detection of FXM protein was Abcam human FXN antibody (ab48281).

FXN protein [2] = experiment: Western blot of FXN protein in gapmer-treated GM03816 lysates; format: cell-based, human; conditions: treated vs untreated
Text: Next, a Western blot with the Abcam ab48281 FXN and Abcam ab125267 tubulin antibodies were run using treated and untreated GM03816 lysates.

FXN mRNA = experiment: Gapmer screen in differentiated myotubes, FXN mRNA levels; format: cell-based; conditions: 4 days after transfection
Text: Subsequently, various oligos targeting ACTL6A, EID1, HIC1, JUND, KAT2A, PRKCD, and YEATS4 were screened in differentiated myotubes for FXN mRNA levels. Measurements were taken 4 days after transfection.

| Compound | FXN protein level (western blot) (FXN protein [1]) | FXN protein level (western blot) (FXN protein [2]) | FXN mRNA level (FXN mRNA) |
| --- | --- | --- | --- |
| COc1cc2nc(N3CCCN(C)CC3)nc(NC3CCN(Cc4ccccc4)CC3)c2cc1OC [HLMi, 2-(Hexahydro-4-methyl-1H-1,4-diazepin-1-yl)-6,7-dimethoxy-N-(1-(phenylmethyl)-4-piperidinyl)-4-quinazolinamine] | FXN human protein upregulation | – | – |
| ACTL6A-03: LNA/DNA gapmer to human ACTL6A, SEQ ID NO 3, GAACGACCATTAGCA (LNA modifications, chemistry not fully specified) | – | strong upregulation | upregulation of FXN mRNA |
| JUND-1: LNA/DNA gapmer to human JUND, SEQ ID NO 61, CCGTAGAAGGGTGTT (LNA/DNA gapmer, wing pattern not given here) | – | strong upregulation | upregulation of FXN mRNA |
| PRKCD-2: LNA/DNA gapmer to human PRKCD, SEQ ID NO 42, TGCGCATAGACTGTT (LNA modifications, chemistry not fully specified) | – | strong upregulation | upregulation of FXN mRNA |
| YEATS4-5: LNA/DNA gapmer to human YEATS4, SEQ ID NO 87, TCGAATTCACCCCAT (LNA modifications, chemistry not fully specified) | – | – | upregulation of FXN mRNA |
| YEATS4-9: LNA/DNA gapmer to human YEATS4, SEQ ID NO 91, AGTTTCACGACTTGC (LNA modifications, chemistry not fully specified) | – | – | upregulation of FXN mRNA |
